Patent US8099262B2, “Estimation of clinical cut-offs” (priority 2004, dated 2012)

Key:
HIV [1] = assay: Logistic regression model of probability of success/failure as a function of baseline fold change resistance (clinical cut-offs); type: in vivo
Excerpt: In such a method, Prob of success is preferably calculated by performing a logistic regression analysis using data from a clinical response dataset, wherein Prob of success is modelled according to the following equation: […]
The clinical outcome results (drop in viral load and response rate) were modelled as a function of baseline fold change (FC) as determined by virtual phenotype (see WO01/79540 and WO02/33402; also http://www.vircolab.com). The models applied were linear regression, logistic regression, and a classification tree. These models also took into account effects of the concomitant HIV drugs (PSS), baseline viral load (Baseline Log(V1)i) and, optionally, treatment history in order to avoid bias introduced by imbalances of important characteristics. From the models, a prediction of clinical outcome could be made at different levels of the baseline fold change resistance.
In the logistic regression, the proposed equation was the following: […]
However, by binning the viral load into successes and failures, part of the information of the continuous variable viral load is lost. Estimates are also corrected for covariates as for linear regression.
The maximum effect was defined as the treatment effect at fold change 1, and the minimum effect was defined as the treatment effect at a very high fold change (i.e. when the curve reached a plateau). The effect range was then the difference between the maximum effect and the minimum effect.
The lower and higher cutoffs are defined as the fold change associated with an expected 20% and 80% decrease respectively of the reference activity of the drug within the regimen.

HIV [2] = type: in vivo
Excerpt: Further factors which may be taken into account when validating the model are the odds ratios determined using clinical cutoffs compared to those determined using biological cutoffs. These ratios represent the odds of being a responder in the group that is labeled resistant by the cutoffs divided by the odds of being a responder in the group that is labeled sensitive by the cutoffs. In this way it is possible to evaluate how well the cutoffs perform on a drug by drug basis. The further away that the odds ratio is from 1, the stronger the correlation between the resistance class and clinical outcome. The odds ratio as specified above yield numbers smaller than 1 as the odds of being a responder should be smaller in the higher resistance class. Put another way, the probability of response will decrease as the resistance increases. Additionally, if the odds ratio for the CCO is smaller than the odds ratio for the BCO, it can be concluded that the CCO is stronger correlated with clinical outcome and therefore gives a better prediction than the BCO.
(§1) A logistic regression model may be used to determine the odds ratio. The model used is the same as the logistic regression model described above except that the fold change in the model is replaced by the resistance class. The coefficient for the resistance class that is obtained from the model is the log (odds ratio). The advantage of using this model is that the odds ratio estimates can be adjusted for the baseline viral load and the cPSS score of the background regimen.
The columns headed CCO Odds Ratio and BCO Odds Ratio represent the odds of being a responder in the group that is labeled resistance by the cutoffs divided by the odds of being a responder in the group that is labeled sensitive by the cutoffs. For example, if there are four non-responders and one responder in the resistant group, and four responders and two non-responders in the sensitive group, the odds of being a responder in the resistant group is 1:4=0.25 and the odds of being a responder in the sensitive group is 4:2=2. […] The further away that the odds ratio is from 1, the stronger the correlation between the resistance class and clinical outcome.
The separation in groups (resistance/sensitive) can be done based on clinical cutoffs or biological cutoffs. This means that odds ratios based on clinical cutoffs (CCO) and odds ratios based on biological cutoffs (BCO) can be compared. If the odds ratio for the CCO is smaller than the odds ratio for the BCO, it can be concluded that the CCO gives a better prediction than the BCO.
as §1, with “In practice, a” for “A”, “is” for “may be”, “similar to” for “the same as the”, “earlier” for “above”, “regimen. […] In this case, a larger odds ratio indicates a stronger correlation with clinical outcome.” for “regimen.”

[3] = Definition 2, Subgroup 1: PSS = 2, baseline Log (VL) = 4
[4] = Definition 2, Subgroup 2: PSS = 0, baseline Log (VL) = 4
[5] = Definition 2, Subgroup 3: PSS = 2, baseline Log (VL) = 5
[6] = Definition 3, Subgroup 1: PSS = 2, baseline Log (VL) = 4
[7] = Definition 3, Subgroup 2: PSS = 0, baseline Log (VL) = 4
[8] = Definition 3, Subgroup 3: PSS = 2, baseline Log (VL) = 5

For CC(C)OC(=O)OCOP(=O)(CO[C@H](C)Cn1cnc2c(N)ncnc21)OCOC(=O)OC(C)C.O=C(O)/C=C/C(=O)O [TDF], the “Logistic Regression Higher CO” value (HIV [1]; [3]) was 3.81, the “Logistic Regression Lower CO” value (HIV [1]; [3]) was 1.2 and the “Logistic Regression Higher CO” value (HIV [1]; [4]) was 3.36. The “Logistic Regression Lower CO” value (HIV [1]; [4]) was 1.16, the “Logistic Regression Higher CO” value (HIV [1]; [5]) was 3.4 and the “Logistic Regression Lower CO” value (HIV [1]; [5]) was 1.17. The “Logistic Regression Lower CO” value (HIV [1]; Definition 3, Overall) was 1.2, the “Logistic Regression Higher CO” value (HIV [1]; [6]) was 3.81 and the “Logistic Regression Lower CO” value (HIV [1]; [6]) was 1.2. The “Logistic Regression Higher CO” value (HIV [1]; [7]) was 3.36, the “Logistic Regression Lower CO” value (HIV [1]; [7]) was 1.2 and the “Logistic Regression Higher CO” value (HIV [1]; [8]) was 3.4. The “Logistic Regression Lower CO” value (HIV [1]; [8]) was 1.2, the “Test Data BCO Odds Ratio” value (HIV [2]; test data, biological cutoffs) was 0.570 and the “Test Data CCO Odds Ratio” value (HIV [2]; test data, clinical cutoffs) was 0.228. The “Validation Data CCO Odds Ratio” value (HIV [2]; validation data, clinical cutoffs) was 0.226.
